In a melting point compilation (Tetko et al.; mined from patent text by program, amines drawn as free bases though some values may be those of a salt):

Row | Compound | melting point [°C]
1 | COC(=O)C1=C(C)Nc2nccn2C1C1CCCCC1 (stereo not drawn) | 178
2 | O=c1nc(N2CCN(c3ccccc3F)CC2)sc2c([N+](=O)[O-])cc(C(F)(F)F)cc12 | 164 to 168
3 | Cn1cc(-c2noc(C(N)CN3CCCCC3)n2)c2ccccc21 (stereo not drawn) | 146 to 147
4 | Cc1c2c(c(C#N)c(=O)n1C)-c1ccccc1C2=O | 271 to 274
5 | COc1cc2ncc(CO)c(-c3ccnc(NN)c3)c2cc1OC | 217 to 220
6 | CC(=O)c1cc(OCC2CO2)ccc1OCc1ccccc1 (stereo not drawn) | 45 to 48
7 | CCNC(=O)c1cnn(C)c1[Si](C)(C)C | 77 to 81
8 | CN(N)c1nc2ccccc2o1 | 128 to 131
9 | CN1c2ccc(S(=O)(=O)c3ccccc3)cc2C2C[C@H](N)CCC21 (stereo partly drawn) | 217 to 219
10 | O=CNC1Cc2cc(Br)ccc2N(C=O)C1 (stereo not drawn) | 174 to 178
11 | COc1cc(OC)c(C2=NC(NC(=O)c3cc4ccccc4[nH]3)C(=O)N(C)c3ccccc32)c(OC)c1 (stereo not drawn) | 297
12 | CC12CCC(=O)NC1=CCc1ccccc12 (stereo not drawn) | 123 to 124
13 | CCOC(=O)C[C@@H](C)NC(=O)N[C@H]1CCN(c2ccc(C#N)cc2)C1=O | 178 to 179
14 | CCC1c2cccn2-c2cc(Cl)ccc2N1S(=O)(=O)c1ccc(O)cc1 (stereo not drawn) | 192 to 194
15 | COC(=O)CCc1ccc(-n2c(C)c(C)[nH]c2=O)cc1 | 152 to 154
16 | COc1ccc(-c2c(Cl)c(COc3ccccn3)nc3sc4c(c23)CCN(Cc2ccccc2)C4)cc1OC | 165 to 167
17 | CCOC1OC(O)C(F)(F)C(F)(F)C1(F)F (stereo not drawn) | 84 to 86
18 | Cc1ccc(/C=C/C(=O)Nc2cccc(NC(=N)c3ccccc3)c2)cc1 | 147 to 149
19 | CS(=O)(=O)c1ccc2cc[nH]c2c1 | 149 to 152
20 | CCCCC/C=C\C/C=C\C/C=C\C/C=C\CCCC(=O)N[C@@H](C)C(=O)N[C@H](CCC(=O)O)C(=O)O | 90
21 | CNC(=O)Nc1ccc(C2=NN(C(=O)NC)C(C)Cc3cc4c(cc32)OCO4)cc1 (stereo not drawn) | 181 to 183
22 | COc1cc(C=CC(=O)c2ccc(OC)c(OC)c2OC)cc(OC)c1 | 112
23 | N#CCCNC1CCCC1 | 81 to 84
24 | Cc1c(NC(=O)c2cc3c(s2)CCCC3)cccc1-c1cc(N)c(=O)n(C)c1 | 210 to 211
25 | CCN(CC)C(=O)c1nc(C)c(-c2ccncc2)s1 | 87.5 to 89
26 | COc1ccc(CCNC(=O)C(=O)NCc2cccnc2)cc1OC1CCCC1 | 148 to 149

Row | Compound | melting point [°C]
27 | CCP(=O)(CC)Cc1ccc(NC(=O)/C=C/c2cccc(-c3ccc(C)cc3)c2)cc1 | 197 to 198
28 | COc1ccc2c(c1OC)CCCC2c1c[nH]cn1 (stereo not drawn) | 160
29 | CN(C)Cc1cnc(NC(=O)[C@H](CC2CCCC2)c2ccc(S(C)(=O)=O)c(Cl)c2)cn1 | 88 to 91.5
30 | COc1ccc2c(c1)NC(=O)N(c1ccc(Cl)cc1)S2(=O)=O | 229 to 230
31 | CC(=O)NCCC1CCc2c(F)cc3nn(C)cc3c21 (stereo not drawn) | 116 to 119
32 | O=C(O)Cn1cccc1 | 88 to 90
33 | COc1ccc2c(c1)CCN=C2C | 206 to 207
34 | Cc1nc(-n2cc(-c3cccnc3)nn2)sc1C(=O)NCc1ccccc1 | 117 to 119
35 | COc1c2c(nn1-c1ccc(Cl)cc1F)CCCC2 | 100 to 102
36 | COc1cn(-c2ccc(N3CCOCC3=O)cc2F)nc(-c2ccnn2-c2ccccc2)c1=O | 193 to 195
37 | COc1ccc(-n2nc(Sc3cccc4ccccc34)c(C)c(C#N)c2=O)cc1 | 181 to 183
38 | CCCc1nn(-c2ccc(C(F)(F)F)cn2)cc1CCCCn1cc(CCC(=O)O)c(-c2ccc(F)cc2)n1 | 119 to 121
39 | Cc1cc(-c2csc(-c3cccc(C(=O)O)c3)n2)c(C)s1 | 155 to 156
40 | Cc1cc(-c2nc3ccccc3[nH]2)n[nH]1 | 322 to 324
41 | Cc1ccc(C(=O)N2CCC(CCN3C(=O)CCc4c(CC5SC(=O)NC5=O)cccc43)CC2)cc1 (stereo not drawn) | 60 to 65
42 | CCNC1CCN(c2c(F)c(N)c3c(=O)c(C(=O)O)cn(C4CC4)c3c2OC)CC1C (stereo not drawn) | 230 to 232
43 | CCN(CC)CCOCCC1CCCCN1C(=O)N1c2ccccc2C(=O)Nc2cccnc21 (stereo not drawn) | 134 to 136
44 | CCCCCCCCCCc1csc2c1S(=O)(=O)c1c(CCCCCCCCCC)csc1-2 | 58.7 to 60.3
45 | Cc1ccc(NC(=S)NC(=O)c2ccccc2)c(Cl)c1 | 143
46 | O=C(O)Cc1c(C(=O)c2ccc(Cl)cc2)[nH]c2ccc(Cl)cc12 | 220 to 224
47 | NS(=O)(=O)c1ccc(-c2cnn(CC(F)=C(F)F)c(=O)c2-c2ccc(F)cc2)cc1 | 173 to 175
48 | CC(=O)NNc1ccnc2c(NC(=O)c3c(Cl)cccc3Cl)cccc12 | 252
49 | CC(=NOCCOc1ccc(CC2SC(=O)NC2=O)cc1)c1cc(C)c(O)c(C)c1 (stereo not drawn) | 53 to 65
50 | CNC(=O)C(=Cc1cccc(-c2ccc(C)c(C)c2)c1)NC(C)=O | 224
51 | C[Si](C)(CCCc1nnc(N)nc1N)c1ccccc1 | 132 to 133
52 | CN(C)c1ccn2nc(S(=O)(=O)Nc3c(Cl)cccc3Cl)nc2n1 | > 310

Row | Compound | melting point [°C]
53 | N=C(Nc1ccc([N+](=O)[O-])cc1)c1ccccc1 | 240 to 241
54 | CCC(=O)N(C)c1cccc(-c2ccc3nnc(NC)n3n2)c1 | 212 to 213
55 | Cn1cc(C(=O)NCc2ccc(Cl)cc2)c(=O)c2cc(CN3CC4CC3CO4)ccc21 (stereo not drawn) | 162 to 163
56 | O=C(O)CCCNC(=O)C(CS)Cc1ccccc1 (stereo not drawn) | 94.5 to 101
57 | Oc1ccccc1-c1cccnc1 | 185
58 | CSCn1cc(F)c(N=CN(C)C)nc1=O | 132 to 136
59 | COC(=O)c1cc(OC)c(C(=O)O)cc1OC | 123 to 124
60 | Fc1ccc(-n2c3c(c4cc(F)ccc42)CN(CCc2ccc4ccccc4n2)CC3)cc1 | 201 to 203
61 | COc1cc(C2CCN(C)CC2)ccc1Nc1ncc2ccc(-c3cccc(S(=O)(=O)NC(C)(C)C)c3)n2n1 | 189 to 198
62 | CCOC(=O)n1nc2cc(Cl)ccc2c1N | 163 to 165
63 | CC1Cc2cc3c(cc2C(c2ccccc2)N1)OCO3 (stereo not drawn) | 89 to 91
64 | CCCC1=C(C#N)C(c2ccccc2Cl)c2c(n[nH]c2-c2cccs2)N1 (stereo not drawn) | 256
65 | OCCN1CCC(=C2c3ccccc3CCn3ncnc32)CC1 | 154
66 | Cc1cc(-n2cncn2)c2cccc(OCc3c(Cl)ccc(S(=O)(=O)N4CCC[C@H]4C(=O)NCCCN4CCCC4)c3Cl)c2n1 | 86
67 | O=[N+]([O-])c1cc(CBr)cc([N+](=O)[O-])c1 | 93 to 94
68 | CCS(=O)(=O)c1ccc(C(=O)NCc2ccc3c(c2)C(=O)N(C2CCC(=O)NC2=O)C3=O)cc1 (stereo not drawn) | 182 to 184
69 | NC(=O)c1ncn(Cc2ccc(Cl)c(C(F)(F)F)c2)c1N | 230 to 232
70 | CCOC(=O)c1ccc(-c2nn(Cc3ccc(Cl)s3)c3ccccc23)o1 | 124 to 126
71 | Cc1sc2c(Br)c3ccccc3c(-c3cc(C(C)C)c(O)c(C(C)C)c3)c2c1C | 212 to 216
72 | CC1(C)CC(=O)Nc2c(CCN3CCN(C4=NS(=O)c5ccccc54)CC3)cc(F)cc21 (stereo not drawn) | 235
73 | CS(=O)(=O)Nc1cc(C(O)CNCCCCCCOCCCc2ccc(Cl)s2)ccc1O (stereo not drawn) | 85 to 87
74 | COCCn1cc(-c2ccccc2)[nH]c1=O | 152 to 153
75 | Cc1nc(Cl)c(C)c(Cl)c1C | 67 to 68
76 | O=C(NC1CCCCC1)NC1N=C(c2ccccc2F)c2ccccc2N(CC(=O)N2CC3CCC(CC3)C2)C1=O (racemic) | 128 to 130
77 | Cc1cc(-c2nc3c(s2)C(=O)c2ccccc2C3=O)oc1C | 250
78 | CC(NC(=O)C1(C(F)(F)F)CC(C)(Cl)C1)c1ccc(Cl)cc1 (stereo not drawn) | 129 to 130

Row | Compound | melting point [°C]
79 | CN1CCN(c2ccc(-c3nc4c(N[C@H]5[C@@H](C(N)=O)[C@@H]6C=C[C@H]5C6)ccnc4[nH]3)cc2)CC1 | 220 to 222
80 | CC(=O)CN(c1ccc(Cl)cc1)S(C)(=O)=O | 108
81 | CCOC(=O)CC(=Nc1cc([N+](=O)[O-])ccc1Cl)OC | 60 to 62
82 | CC(CSC(=S)c1cccs1)C(=O)N1CCCC1C(=O)O (stereo not drawn) | 149 to 150
83 | CSC(=NC#N)N(C)N=Cc1ccccc1 | 132 to 133
84 | Cc1ccc(S(=O)(=O)OCC2COc3ccc([N+](=O)[O-])c(N)c3O2)cc1 (stereo not drawn) | 155
85 | CCOCC1COc2ccc(N)cc2O1 (stereo not drawn) | 103 to 106
86 | O=C(NC1CCOCC1)c1ccc2nonc2c1 | 204 to 205
87 | CS(=O)(=O)c1ccc(-c2nc(C(F)(F)F)nc(Cl)c2-c2ccc(S(=O)(=O)Cl)cc2)cc1 | 207 to 210
88 | NC(=O)c1sccc1SSc1ccsc1C(N)=O | 222 to 223
89 | O=C(CNC(=O)c1ccc([N+](=O)[O-])cc1[N+](=O)[O-])OCc1ccccc1 | 116 to 118
90 | N#CCN1CCc2ccc3c(c21)CCO3 | 122 to 124
91 | CCCN(CCC)C(=O)C1Cc2ccccc2N1c1nc(-c2ccccc2)nc(C)c1C (stereo not drawn) | 167 to 168
92 | COc1ccc2c(c1)OCC(C(=O)O)O2 (stereo not drawn) | 120 to 121
93 | CC(C)NC1=NS(=O)(=O)c2ccc(F)cc2N1 | 266 to 269
94 | CC(=O)Nc1ccc(-c2cc(C(C)(C)C)c(O)c(C(C)(C)C)c2)cc1 | 173 to 174
95 | O=Cc1c(-c2ccccc2F)ccc2c1OCO2 | 84 to 86
96 | CC(=O)NCCCCc1ccc(C(=O)CC(C)C#N)cc1 (stereo not drawn) | 89 to 90
97 | CC(C)(C)OC(=O)N1CCC(c2nc3cc(-c4ccc(S(C)(=O)=O)cc4F)cc(F)c3o2)CC1 | 155 to 158
98 | CC(=O)NC[C@H]1CN(c2ccc(N3CCC(n4nnc(N5CCN(Cc6ccccc6)CC5)n4)CC3)c(F)c2)C(=O)O1 | 202 to 204
99 | CC(C)SC1=N/C(=C\c2c[nH]c3ncc(Cl)cc23)C(=O)N1 | 291 to 293
100 | O=C1c2cccc(O)c2C(=O)c2c(NCCCCO)ccc(O)c21 | 168
101 | CCCCCOc1c(OC)ccc(C(=O)NCCc2ccc(OCc3ccccc3)cc2)c1CCO | 93.4 to 93.7
102 | Clc1cc(Cl)c2c(c1)CCC(c1ccccc1)O2 (stereo not drawn) | 74 to 76
103 | CC(C)(C(=O)O)c1ccc(CCl)cc1 | 121 to 122
